Results: ChEMBL document CHEMBL1136359, “11,12-epoxyeicosatrienoic acid (11,12-EET): structural determinants for inhibition of TNF-alpha-induced VCAM-1 expression” (Bioorg Med Chem Lett, 2003)

What follows are molecules tested on HSVEC (assay: (§1) Inhibitory activity against tumor necrosis factor-alpha (TNF-alpha) induced vascular cell adhesion molecule-1 (VCAM-1) in human endothelial cells).
Type: functional, cell-based
`CCCCCCCCCOCC/C=C\CCCCCCC(=O)O` showed an IC50 of 45 nM.
`CCCCCCCCC1OC1C/C=C\CCCCCCC(=O)O` (stereo in doubt; 9) was tested, and the IC50 was 60 nM.

The molecules below were run on HSVEC (assay: as §1).
Type: functional
`CCCCC/C=C\C[C@H]1O[C@H]1C/C=C\C/C=C\CCCC(=O)O` showed an Inhibition of 31%.
`CCCCCCCCC1OC1C/C=C\CCCCOCC(=O)O` (centres undefined) was tested, and the Inhibition was 3%.
In the case of `CCCCCCCCC1OC1CC#CCCCCCCC(=O)O` (centres undefined), the Inhibition is reported as 28%.
In the case of `O=C(O)CCCCCC/C=C\CCOCCCCCCCCCOc1ccc(I)cc1`, the Inhibition is reported as 52%.
Work on `CCCCC/C=C\CC1OC1C/C=C\C/C=C\CCCC(=O)O` (centres undefined) yielded an Inhibition of 39%.
For `CCCCCCCCc1cocc1C/C=C\CCCCCCC(=O)O`, the Inhibition was 50%.
Molecule `CCCCCCCCCOCC/C=C\CCCCCCC(=O)NS(C)(=O)=O` has an Inhibition of 1%.
Molecule `CCCCCCCC[C@@H]1O[C@@H]1C/C=C\CCCCC(=O)O` has an Inhibition of 17%.
`O=C(O)CCCCCC/C=C\CC1OC1CCCCCCCCO` (centres undefined) was tested, and the Inhibition was 36%.
For `O=C(O)CCCCCC/C=C\CCOCCCCCCCCCO`, the Inhibition was 27%.
In the case of `CCCCCCCCCOCC/C=C\CCCCCCC(=O)O`, the Inhibition is reported as 48%.
With `CCCCCCCCC1OC1CCCCCCCCCC(=O)O` (centres undefined) the Inhibition was 36%.
Work on `CCCCC/C=C\CC1SC1C/C=C\C/C=C\CCCC(=O)O` (centres undefined) yielded an Inhibition of 65%.
For `CCCCCCCCC1OC1C/C=C\CCCCCCC(=O)NS(=O)(=O)c1ccccc1` (centres undefined), the Inhibition was 33%.
Molecule `CCCCC/C=C\CC1OC1CCCCCCCCCC(=O)O` (centres undefined) has an Inhibition of 13%.
For `CCCCC/C=C\C[C@@H]1O[C@@H]1C/C=C\C/C=C\CCCC(=O)O`, the Inhibition was 35%.
For `CCCCC/C=C\CC1OC1C/C=C\CCCCCCC(=O)O` (centres undefined), the Inhibition was 10%.
`CCCCCCCCC1OC1C/C=C\CCCCCCCO` (centres undefined) was tested, and the Inhibition was 32%.
Work on `CCCCCCCC[C@H]1O[C@H]1C/C=C\CCCCC(=O)O` yielded an Inhibition of 13%.
With `CCCCCCCCC1OC1CCCC/C=C\CCCC(=O)O` (centres undefined) the Inhibition was 31%.
`CC(=O)NCCCCCCCCCOCC/C=C\CCCCCCC(=O)O` showed an Inhibition of 63%.
Molecule `CCCCCCCCC1CC1C/C=C\CCCCCCC(=O)O` (centres undefined) has an Inhibition of 31%.
In the case of `CCCCC/C=C\CC1OC1CCCC/C=C\CCCC(=O)O` (centres undefined), the Inhibition is reported as 30%.
In the case of `CCCCCCCCC1OC1CC/C=C\CCCCCC(=O)O` (centres undefined), the Inhibition is reported as 13%.
`CCCCCCCCCCC1OC1C/C=C\CCCCCCC(=O)O` (centres undefined) showed an Inhibition of -1%.
For `CCCCCCCCC1OC1C/C=C\CCCCCCC(=O)O` (stereo in doubt; 9), the Inhibition was 69%.
Molecule `CCCCCCCCC1OC1C/C=C\CCCCCCC(=O)O` (stereo in doubt; 11) has an Inhibition of 58%.
`CCCCCCCCC1SC1C/C=C\CCCCCCC(=O)O` (stereo in doubt; 15) was tested, and the Inhibition was 49%.
`CCCCCCCCC1SC1C/C=C\CCCCCCC(=O)O` (stereo in doubt; 16) gave an Inhibition of 26%.
`CCCCCCCCC1OC1C/C=C\CCCCCCC(=O)O` (stereo in doubt; 21) showed an Inhibition of 1%.
With `CCCCCCCCC1OC1C/C=C\CCCCCCC(=O)NS(C)(=O)=O` (stereo in doubt; 29) the Inhibition was 29%.
Molecule `CCCCCCCCC1OC1C/C=C\CCCCCCC(=O)NS(C)(=O)=O` (stereo in doubt; 30) has an Inhibition of 31%.
